In US20050214220A1, “Tumor model” (vivoPharm Pty Ltd., priority 2004, published 2005):

Test system: HC11-NeuT mammary tumors
Test: In vivo efficacy in orthotopic HC11-NeuT mammary tumor model
Parameters: species or system Balb/c mice
Conditions: intravenous, 10 mg/kg body weight
Description: HC11 cells were infected with the pBabe-puro retrovirus as described in Morgenstern and Land (1990) Nucl. Acids Res. 18:3587-3596. Cells were either infected with the pBabe-puro encoding oncogenic NeuT (pBabe-puro NeuT) or control pBabe-puro. In this case, oncogenic activation is by the ErbB2 receptor tyrosine kinase (RTK). The receptor is constitutively activated in a ligand-independent manner due to spontaneous dimerization.
High-titer, helper-free recombinant retroviruses were produced from BOSC-23 cells transiently transfected with plasmid DNA, using the CaPO4 technique, as described in Pear et al. (1993) Proc. Natl. Acad. Sci. 90:8392-8396. HC11 cells were infected by exposure to filtered conditioned medium from 24-48 h transfected BOSC-23 cultures, in the presence of 40 μg/ml polybrene. One day later the medium was replaced with fresh virus-containing medium. Cells were trypsinized, split 1:2 into HC11 growth medium containing 0.75 μg/ml puromycin and selected for 3-4 days. One day before harvesting, the cells were cultured in the absence of puromycin, trypsinized cells were washed, resuspended at 0.5-1.0×10^6 cells/10 μl PBS and implanted in the fat pad as described in below.
All experiments were performed with Balb/c mice. Transplants were performed on 8-10 week-old females. The anesthetized mouse was pinned on a cork board and scrubbed with 70% ethanol. […]

SMILES: CC(=O)O[C@H]1C(=O)[C@@]2(C)[C@H]([C@H](OC(=O)c3ccccc3)[C@]3(O)C[C@H](OC(=O)[C@H](O)[C@@H](NC(=O)c4ccccc4)c4ccccc4)C(C)=C1C3(C)C)[C@]1(OC(C)=O)CO[C@@H]1C[C@@H]2O [Taxol]
- reduction of tumor growth or cell proliferation: no significant reduction
